This note sets out measurements from patent US20040176431A1, “Antiproliferative 2-(sulfo-phenyl)-aminothiazole derivatives and pharmaceutical compositions, and methods for their use” (Pfizer, Inc., priority 2003, published 2004).

This test deals with T1, CDK4/cyclin D3 (Homo sapiens, UniProt P11802).
T1 construct: made in house; host or cells: insect cells (baculovirus co-infection)
In words: Inhibition of CDK4/Cyclin D retinoblastoma kinase activity.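 As to % Inhib CDK4/D @ 1 μM: relative to DMSO control wells without compound minus no-enzyme background.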 Type of test: biochemical. Particulars: for inhibition at 0.1 µM / % Inhib CDK4/D @ 0.1 μM: test compound at 0.1 μM; for inhibition at 0.1 µM: read-out: % Inhib CDK4/D @ 0.1 μM; for inhibition at 1 µM / % Inhib CDK4/D @ 1 μM: test compound at 1 μM (head line shifted: 'mM' printed beside 'Structure'); for inhibition at 1 µM: read-out: % Inhib CDK4/D @ 1 μM; for inhibition at 0.03 µM / % Inhib CDK4/D @ 0.03: test compound at 0.03 (unit cell empty, head line shifted; μM); for inhibition at 0.03 µM: read-out: % Inhib CDK4/D @ 0.03. In short, it runs like this: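 Human CDK4 with truncated cyclin D3 (1-264) from baculovirus-infected insect cells, 5 nM, phosphorylating His-tagged Rb fragment (386-928) with 25 μM [32P/33P]ATP in pH 7.4 HEPES/MgCl2, 2% DMSO, 30° C., 20 min (60 min for tight binders). Filter capture, phosphorimager; apparent Ki from competitive or tight-binding competitive fits.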

T1 sequence (P11802 whole entry): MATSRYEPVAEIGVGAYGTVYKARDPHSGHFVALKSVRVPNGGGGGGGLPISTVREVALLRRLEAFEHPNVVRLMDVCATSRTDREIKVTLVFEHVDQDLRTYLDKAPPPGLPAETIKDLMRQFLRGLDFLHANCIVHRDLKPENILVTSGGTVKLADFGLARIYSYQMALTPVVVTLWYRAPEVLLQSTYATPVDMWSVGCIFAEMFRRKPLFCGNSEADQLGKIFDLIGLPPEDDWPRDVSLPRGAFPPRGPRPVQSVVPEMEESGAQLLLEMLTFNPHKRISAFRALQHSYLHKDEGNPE
T1 sequence (P30281 1-264 partner limits assumed): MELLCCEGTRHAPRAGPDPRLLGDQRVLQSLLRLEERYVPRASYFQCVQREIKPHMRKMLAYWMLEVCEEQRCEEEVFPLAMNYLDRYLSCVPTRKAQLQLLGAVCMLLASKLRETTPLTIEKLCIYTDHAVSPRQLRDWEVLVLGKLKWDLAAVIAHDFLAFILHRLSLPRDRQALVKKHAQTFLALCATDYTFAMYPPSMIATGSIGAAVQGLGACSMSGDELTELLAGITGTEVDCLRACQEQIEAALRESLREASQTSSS

Regarding `Nc1nc(Nc2ccc([S+]([O-])CC3CO3)cc2)sc1C(=O)c1c(Cl)cccc1Cl` (stereo not drawn) [DD(92)], the inhibition at 0.1 µM is 26%, the inhibition at 1 µM came to 65.8% and the inhibition at 0.03 µM was -4.6%.
`CC(C)CCCS(=O)(=O)c1ccc(Nc2nc(N)c(C(=O)c3c(Cl)cccc3Cl)s2)cc1` [DD(190)]: the inhibition at 0.1 µM stood at 25%, the “% Inhib CDK4/D @ 1 μM” value was 33.4% and the “% Inhib CDK4/D @ 0.03” value is −21%.
For `CC(C)OC(=O)CC[S+]([O-])c1cccc(Nc2nc(N)c(C(=O)c3c(Cl)cccc3Cl)s2)c1` (stereo not drawn) [DD(158)], the inhibition at 0.1 µM stood at 27%, the inhibition at 1 µM was 35% and the inhibition at 0.03 µM came to 22%.
Taken in the same sequence, the figures for `COCCSc1ccc(Nc2nc(N)c(C(=O)c3c(Cl)cccc3Cl)s2)cc1` [DD(14)] were 41%, 80% and 18%.
For the compound `CC(C)CCCS(=O)(=O)c1ccc(Nc2nc(N)c(C(=O)c3c(Cl)cccc3Cl)s2)cc1` [DD(230)], the “% Inhib CDK4/D @ 0.1 μM” value stood at 20%, the “% Inhib CDK4/D @ 1 μM” value is −1.6% and the “% Inhib CDK4/D @ 0.03” value was −17%.
With `COC(=O)CSc1cccc(Nc2nc(N)c(C(=O)c3c(Cl)cccc3Cl)s2)c1` [DD(66)], the inhibition at 0.1 µM amounted to 23%, the inhibition at 1 µM turned out to be 77.1% and the inhibition at 0.03 µM was 18%.
In the case of `CC1(C[S+]([O-])c2cccc(Nc3nc(N)c(C(=O)c4c(Cl)cccc4Cl)s3)c2)CO1` (stereo not drawn) [DD(140)], the inhibition at 0.1 µM was 41%, the inhibition at 1 µM is 68% and the inhibition at 0.03 µM amounted to 25%.
For `Nc1nc(Nc2ccc(SCC3CNC(=O)O3)cc2)sc1C(=O)c1c(Cl)cccc1Cl` (stereo not drawn) [DD(9)], the inhibition at 0.1 µM was -14%, the inhibition at 1 µM is 40.3% and the inhibition at 0.03 µM is -28%.
On the same counts, the results for `Nc1nc(Nc2ccc([S+]([O-])CCN3CCCCC3)cc2)sc1C(=O)c1c(Cl)cccc1Cl` (stereo not drawn) [DD(91)] are 24%, 68.2% and -6.3%.
Taken in the same sequence, the figures for `CN(C)CCCS(=O)(=O)c1ccc(N(C)c2nc(N)c(C(=O)c3c(Cl)cccc3Cl)s2)cc1` [DD(210)] were 21%, -37% and -22%.
As for `Nc1nc(Nc2cccc([S+]([O-])CCO)c2)sc1C(=O)c1c(Cl)cccc1Cl` (stereo not drawn) [DD(149)], the inhibition at 0.1 µM came out at 55%, the inhibition at 1 µM is 57.7% and the inhibition at 0.03 µM stood at 33%.
Taken in the same sequence, the figures for `Nc1nc(Nc2ccc([S+]([O-])CC3CNC(=O)O3)cc2)sc1C(=O)c1c(Cl)cccc1Cl` (stereo not drawn) [DD(89)] were 35%, 61.7% and -29%.
On the same counts, the results for `CC(C)CC[S+]([O-])c1cccc(Nc2nc(N)c(C(=O)c3c(Cl)cccc3Cl)s2)c1` (stereo not drawn) [DD(133)] are 28%, 24.3% and 14%.
`Cc1noc(C)c1CS(=O)(=O)c1ccc(Nc2nc(N)c(C(=O)c3c(Cl)cccc3Cl)s2)cc1` [DD(162)]: the “% Inhib CDK4/D @ 0.1 μM” value is given as 13%, the “% Inhib CDK4/D @ 1 μM” value worked out at 14% and the “% Inhib CDK4/D @ 0.03” value is 5.8%.
As for `NC(=O)CS(=O)(=O)c1ccc(Nc2nc(N)c(C(=O)c3c(Cl)cccc3Cl)s2)cc1` [DD(221)], the “% Inhib CDK4/D @ 0.1 μM” value came out at 21%, the “% Inhib CDK4/D @ 1 μM” value is given as 17.6% and the “% Inhib CDK4/D @ 0.03” value is −14%.
As to `Nc1nc(Nc2ccc(S(=O)(=O)Cc3ccccc3)cc2)sc1C(=O)c1c(Cl)cccc1Cl` [DD(195)], the inhibition at 0.1 µM came to 25%, the inhibition at 1 µM came to 22.3% and the inhibition at 0.03 µM is 3.8%.
Turning to `CCOC(=O)CCS(=O)(=O)c1ccc(Nc2nc(N)c(C(=O)c3c(Cl)cccc3Cl)s2)cc1` [DD(222)], the “% Inhib CDK4/D @ 0.1 μM” value was −11%, the “% Inhib CDK4/D @ 1 μM” value was −11% and the “% Inhib CDK4/D @ 0.03” value is −9%.
For `Nc1nc(Nc2cccc(SCCO)c2)sc1C(=O)c1c(Cl)cccc1Cl` [DD(69)], the inhibition at 0.1 µM worked out at 41%, the inhibition at 1 µM is 78.4% and the inhibition at 0.03 µM was found to be 16%.
On the same counts, the results for `CCC(CC)C[S+]([O-])c1ccc(Nc2nc(N)c(C(=O)c3c(Cl)cccc3Cl)s2)cc1` (stereo not drawn) [DD(116)] are 15%, 26.6% and -2.9%.
As to `Nc1nc(Nc2ccc(S(=O)(=O)CCN3CCCCC3)cc2)sc1C(=O)c1c(Cl)cccc1Cl` [DD(171)], the inhibition at 0.1 µM is 21%, the “% Inhib CDK4/D @ 1 μM” value is listed as 17.1% and the “% Inhib CDK4/D @ 0.03” value is given as −29%.
`CN1CCCC1CCS(=O)(=O)c1ccc(Nc2nc(N)c(C(=O)c3c(Cl)cccc3Cl)s2)cc1` (stereo not drawn) [DD(179)]: the inhibition at 0.1 µM turned out to be 24%, the “% Inhib CDK4/D @ 1 μM” value stood at 9.4% and the “% Inhib CDK4/D @ 0.03” value is recorded as −1.1%.
In the case of `Nc1nc(Nc2cccc(SCCN3CCCCC3)c2)sc1C(=O)c1c(Cl)cccc1Cl` [DD(51)], the inhibition at 0.1 µM amounted to 30%, the inhibition at 1 µM was 75.6% and the inhibition at 0.03 µM stood at 4.1%.
Turning to `Nc1nc(Nc2ccc(SCCN3CCCC3)cc2)sc1C(=O)c1c(Cl)cccc1Cl` [DD(7)], the inhibition at 0.1 µM worked out at 31%, the inhibition at 1 µM amounted to 55% and the inhibition at 0.03 µM is 11%.
On to `Nc1nc(Nc2ccc(S(=O)(=O)CCO)cc2)sc1C(=O)c1c(Cl)cccc1Cl` [DD(229)], for which the “% Inhib CDK4/D @ 0.1 μM” value stood at 23%, the “% Inhib CDK4/D @ 1 μM” value stood at 3.5% and the “% Inhib CDK4/D @ 0.03” value is on record as −13%.
On to `Nc1nc(Nc2ccc([S+]([O-])CCN3CCCC3)cc2)sc1C(=O)c1c(Cl)cccc1Cl` (stereo not drawn) [DD(87)], for which the inhibition at 0.1 µM worked out at 29%, the inhibition at 1 µM stood at 68.2% and the inhibition at 0.03 µM was -16%.
As for `C=CCCS(=O)(=O)c1ccc(Nc2nc(N)c(C(=O)c3c(Cl)cccc3Cl)s2)cc1` [DD(166)], the inhibition at 0.1 µM was 14%, the “% Inhib CDK4/D @ 1 μM” value stood at 14.5% and the “% Inhib CDK4/D @ 0.03” value was 3.5%.
As to `Nc1nc(Nc2ccc(SCC(O)CO)cc2)sc1C(=O)c1c(Cl)cccc1Cl` (stereo not drawn) [DD(34)], the inhibition at 0.1 µM was determined as 52%, the inhibition at 1 µM is 89.3% and the inhibition at 0.03 µM was found to be 32%.
On the same counts, the results for `CC(C)=CC[S+]([O-])c1ccc(Nc2nc(N)c(C(=O)c3c(Cl)cccc3Cl)s2)cc1` (stereo not drawn) [DD(104)] are 14%, 36.4% and -38%.
Taken in the same sequence, the figures for `Nc1nc(Nc2cccc(SCC3CC3)c2)sc1C(=O)c1c(Cl)cccc1Cl` [DD(56)] were 17%, 55.4% and 2.9%.
Take `COCCS(=O)(=O)c1ccc(Nc2nc(N)c(C(=O)c3c(Cl)cccc3Cl)s2)cc1` [DD(174)]: the inhibition at 0.1 µM is 24%, the “% Inhib CDK4/D @ 1 μM” value is listed as 24.6% and the “% Inhib CDK4/D @ 0.03” value was −16%.
For `CC(=O)OCCSc1ccc(Nc2nc(N)c(C(=O)c3c(Cl)cccc3Cl)s2)cc1` [DD(37)], the inhibition at 0.1 µM worked out at 30%, the inhibition at 1 µM amounted to 74.3% and the inhibition at 0.03 µM stood at 13%.
